The text below walks through data of US10799467B2, “Use of the phytocannabinoid cannabidivarin (CBDV) in the treatment of epilepsy” (GW Pharma Limited, priority 2010, dated 2020).

Read-outs that look alike come from different tables or passages of the source. Marks after values point to notes of the source that are not given here.

Series [1] deals with PTZ-induced seizures. Briefly: PTZ model of generalised seizures (80 mg/kg PTZ). The series is classed as in vivo, Wistar rats. Conditions: for Median severity: vehicle 4.25; for % no seizure: vehicle 12.5; for mortality rate: vehicle 44%, not significant. On the procedure:
Male Wistar rats (P24-29; 75-110 g) were used to assess the effects of the phytocannabinoid CBDV in the PTZ model of generalised seizures. Animals were habituated to the test environment, cages, injection protocol and handling prior to experimentation. Animals were housed in a room at 21° C. on a 12 hour light: dark cycle (lights on 0900) in 50% humidity, with free access to food and water.
Five 6 L Perspex tanks with lids were placed on a single bench with dividers between them. Closed-circuit television (CCTV) cameras were mounted onto the dividers to observe rat behaviour. Sony Topica CCD cameras (Bluecherry, USA) were linked via BNC cables to a low-noise PC via Brooktree digital capture cards (Bluecherry, USA). Zoneminder (http://www.zoneminder.com) software was used to monitor rats, start and end recordings and manage video files. In-house Linux scripts were used to encode video files into a suitable format for further offline analysis using The Observer (Noldus Technologies).
A range of doses of PTZ (50-100 mg/kg body weight) were used to determine the best dose for induction of seizures (see below). As a result, a dose of 80 mg/kg injected intra-peritoneally (IP; stock solution 50 mg/ml in 0.9% saline) were used to screen the CBDV.
On the day of testing, pure CBDV was administered via intra-peritoneal (i.p.) injection at doses of 50, 100 and 200 mg/kg alongside animals that were injected with a matched volume of the cannabinoid vehicle (2:1:17 ethanol:Cremophor: 0.9% w/v NaCl solution), which served as the negative control group. Animals were then observed for 1 hour, after which time they received an IP injection of 80 mg/kg PTZ. Negative vehicle controls were performed in parallel with cannabinoid-dosed subjects. After receiving a dose of PTZ, animals were observed and videoed to determine the severity of seizure and latency to several seizure behaviour types (see in vivo analysis, below). Animals were filmed for half an hour after last sign of seizure, and then returned to their cage.
Animals were observed during experimental procedures, but all analysis was performed offline on recorded video files using The Observer behavioural analysis software (Noldus, Netherlands). A seizure severity scoring system was used to determine the levels of seizure experienced by subjects (Pohl & Mares, 1987). All signs of seizure were detailed for all animals.
The latency (in seconds) from injection of PTZ to first myoclonic jerk (FMJ; score of 1), and to the animal attaining “forelimb clonus with tonic component and body twist” (score of 3.5) were recorded. FMJ is an indicator of the onset of seizure activity, whilst >90% of animals developed scores of 3.5, and so is a good marker of the development of more severe seizures. Data are presented as the mean±S.E.M. within an experimental group.
This is given as the median value for each experimental group based on the scoring scale below.
The percentage of animals within an experimental group that died as a result of PTZ-induced seizures. Note that the majority of animals that developed tonic-clonic seizures (scores of 4 and 5) died as a result, and that a score of 6 (death) automatically denotes that the animal also experienced tonic-clonic seizures.
This is given as the mean±S.E.M. for each experimental group.
For measures of latency and severity, one way analysis of variance (ANOVA) was performed on the four groups together (vehicle and 50, 100 and 200 mg/kg CBDV) to detect overall effects of CBDV (p≤0.05 considered significant).
Significant ANOVA results were followed by post hoc tests to test differences between vehicle and drug groups (Tukey's test, p≤0.05 considered significant).
Methodology as described in Example 2.
General methodology is as described in Example 2.
Three doses of THCV BDS were assessed against a concentration of PTZ known to induce moderate seizures in rats (70 mg/kg; see pilot, above). […]

Series [2] has as its system MES-induced seizure. Put plainly: Maximal electroshock seizure (MES) model of epilepsy. Type of series: in vivo, Mouse/ICR. On the procedure: The vehicle used in this study was 2:1:17 (ethanol:Cremophor:0.9% ^w/v, NaCl). The test compounds used were cannabidiol (CBD) and cannabidivarin (CBDV). These were made to a solution at the highest concentration; these were then dissolved in ethanol before combination with Cremophor and 0.9% NaCl in the proportion described above. The CBD or CBDV were administered intraperitoneally at a volume of 10 ml/kg body weight. The SAED valproic acid (VBA) was dissolved in saline.
Animal Species/Strain: Mouse/ICR, Microbiological grade: SPF, Supplier: SLC Japan, Inc. […] Temperature: 23±2° C., Humidity: 60±10%, Light conditions: 7 AM to 7 PM for the light period, 7 PM to 7 AM for the dark period. Chow and water: Free access to CRF-1 (Oriental Yeast Co, Ltd) and tap water.
One day before each experiment, mice were weighed and randomized into several groups in each test. On the morning of the experiment day, body weight was measured in order to calculate the administration volume of each animal. Vehicle, CBD, CBDV or valproic acid sodium salt was interperitoneally administered 30 minutes before electric stimuli. Maximal electroshock seizures (MES) in mice was induced by a stimulator (UGO BASILE ECT UNIT 7801, Italia) using a current of 30 mA delivered with a pulse frequency of 100 Hz for 200 msec through earlap electrodes.
All statistical analyses were performed using SAS Software for Windows, Release 9.1 (SAS Institute Japan). The difference of the number (hindlimb extension or deaths) in each group was assessed using two-tailed Fisher's exact test.
A general note: In the maximal electroshock model the usual endpoint is tonic extension of the hind limbs.

Series [3] has as its system grand mal seizures. Conditions: 200-300 mg of cannabidiol plus regular medication; Cunha et al (1980); cited from earlier work.
Series [4] relates to seizure frequency. The conditions noted are these: 200-300 mg of cannabidiol per day in addition to standard antiepileptic drugs; 12 patients; cited from earlier work.
The test system of series [5] is seizure frequency. The conditions noted are these: 900-1200 mg of cannabidiol a day for 10 months; single patient; cited from earlier work.
Series [6] deals with CB1 receptor (Homo sapiens, UniProt P21554). The conditions noted are these: cited from earlier work.
Chain of CB1 receptor (P21554 whole entry): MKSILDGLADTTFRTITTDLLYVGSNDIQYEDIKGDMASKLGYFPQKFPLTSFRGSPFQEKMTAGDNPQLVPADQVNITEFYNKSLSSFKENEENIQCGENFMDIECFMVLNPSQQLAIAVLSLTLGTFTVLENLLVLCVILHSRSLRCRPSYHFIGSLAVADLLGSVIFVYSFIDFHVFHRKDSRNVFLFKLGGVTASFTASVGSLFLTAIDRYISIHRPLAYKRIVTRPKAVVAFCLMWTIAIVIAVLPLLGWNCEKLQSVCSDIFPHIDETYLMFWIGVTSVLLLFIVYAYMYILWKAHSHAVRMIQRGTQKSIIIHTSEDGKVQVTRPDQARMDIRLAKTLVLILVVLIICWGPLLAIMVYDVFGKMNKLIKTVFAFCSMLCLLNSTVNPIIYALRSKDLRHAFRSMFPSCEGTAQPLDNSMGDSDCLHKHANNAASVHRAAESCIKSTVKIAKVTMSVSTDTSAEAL
Series [7] deals with CB2 receptor (Homo sapiens, UniProt P34972). The conditions noted are these: WO 2007/138322; cited from earlier work.
Chain of CB2 receptor (P34972 whole entry): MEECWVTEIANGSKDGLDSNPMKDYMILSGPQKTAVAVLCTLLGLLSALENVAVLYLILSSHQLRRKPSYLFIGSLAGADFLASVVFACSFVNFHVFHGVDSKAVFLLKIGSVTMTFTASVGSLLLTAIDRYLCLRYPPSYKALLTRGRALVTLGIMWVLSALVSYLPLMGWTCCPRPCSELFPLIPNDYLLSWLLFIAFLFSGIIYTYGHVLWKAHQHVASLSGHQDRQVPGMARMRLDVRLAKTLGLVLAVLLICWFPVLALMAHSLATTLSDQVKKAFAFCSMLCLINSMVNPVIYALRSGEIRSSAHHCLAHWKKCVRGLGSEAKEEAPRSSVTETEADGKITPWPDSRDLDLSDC
For series [8] the following is noted: rats; WO 2007/138322; cited from earlier work.
In series [9] the test system is seizures. The conditions noted are these: THC administered to 5 institutionalized children not responding to phenobarbital and phenytoin; cited from earlier work.
Series [10] deals with PTZ-induced seizures. Briefly: CBDV with standard anti-epileptic drugs in the PTZ model of generalised seizures. The series is classed as in vivo, Wistar rats. The conditions noted are these: valproate (varying doses) co-administered with CBDV 200 mg/kg. On the procedure:
As described in Example 2 above. Varying doses of the SAED's ethosuximide and valproate were tested in combination to isolated CBDV at a dose of 200 mg/kg.

The test system of series [11] is pilocarpine-induced seizures. Briefly: CBDV with standard anti-epileptic drugs in the pilocarpine model of epilepsy. Type of series: in vivo. Conditions: CBDV 200 mg/kg with valproate at various doses. From the text: These two drugs are representative of two classes of anti-convulsants which have different mechanisms of action.
For series [12] the following is noted: cited from earlier work.
Setting [13] is: rats at doses greater than 200 mg/kg.

Regarding `C=C(C)[C@@H]1CCC(C)=C[C@H]1c1c(O)cc(CCCCC)cc1O` [CBD, cannabidiol], in series [1] (100 mg/kg CBD IP 60 minutes before 80 mg/kg PTZ, vehicle 46.7%, p<0.001), the animals that died came to 6.7%. The “animals that experienced the most severe seizures (score of 5)” value in series [1] (100 mg/kg CBD IP, 80 mg/kg PTZ, vehicle 53.3%, p<0.001) is reported as 6.7%. Besides, the “latency of seizure development” value in series [1] (CBD 1, 10 and 100 mg/kg IP, 80 mg/kg PTZ) is “no significant increases”. Also, in series [2] (3 mg/kg i.p., Table 10.1, 5 mice per group, vehicle 5/5), the “Incidence of Tonic convulsion” value is given as 3/5. In addition, the “Incidence of Tonic convulsion” value in series [2] (10 mg/kg i.p., Table 10.1, 5 mice per group, vehicle 5/5) is 4/5. In addition, the “Incidence of Tonic convulsion” value in series [2] (30 mg/kg i.p., Table 10.1, 5 mice per group, vehicle 5/5) is listed as 3/5. The “Incidence of Tonic convulsion” value in series [2] (100 mg/kg i.p., Table 10.1, 5 mice per group, vehicle 5/5) is 4/5. The “inhibition of the expression of hindlimb extension with statistical significance” value in series [2] (CBD 3-100 mg·kg IP) was “not able to inhibit”. Also, in series [3], the “patients who remained unchanged” value was 1, the “patients who showed complete improvement” value is 3, the “patients who showed minor improvement” value is 2 and the “patients who showed partial improvement” value was 2. In series [3], the unwanted effect entry was “mild sedation”. Besides, the “improvement in seizure frequency” value in series [4] is on record as “no significant improvement”. The seizure frequency result in [5] is on record as “markedly reduced”. Moreover, the “activity at the CB1 receptor” value in series [6] is listed as “inverse agonists”. Moreover, in [7], the “activity at the CB2 receptor” value was “inverse agonists”. Also, the bodyweight result in series [8] is reported as “reduced”.
As to `CCCCCc1cc(O)c2c(c1)OC(C)(C)[C@@H]1CCC(C)=C[C@@H]21` [THC, tetrahydrocannabinol], in series [9], the “seizure outcome in 5 children” value is “One became entirely free of seizures, one became almost completely free of seizures, and the other three did no worse than before”.
With `CCCc1cc(O)c2c(c1)OC(C)(C)[C@@H]1CCC(C)=C[C@@H]21` [THCV, tetrahydrocannabivarin], the Median severity in series [1] (0.025 mg/kg THCV, 80 mg/kg PTZ) was determined as 3.5; in series [1] (0.25 mg/kg THCV, 80 mg/kg PTZ), 3.5; in [1] (2.5 mg/kg THCV, 80 mg/kg PTZ), 3.5. Moreover, the “% no seizure” value in series [1] (0.025 mg/kg THCV, 80 mg/kg PTZ) is on record as 5.9%; in [1] (0.25 mg/kg THCV, 80 mg/kg PTZ) it was 33.3%; in series [1] (2.5 mg/kg THCV, 80 mg/kg PTZ) it was 18.8%. Further, the mortality rate came to 38% in series [1] (high (2.5 mg/kg) pure THCV, 80 mg/kg PTZ); 41% in series [1] (low (0.025 mg/kg) pure THCV, 80 mg/kg PTZ); 33% in series [1] (medium (0.25 mg/kg) pure THCV, 80 mg/kg PTZ). For the same compound, the “latency to score of [5] vs vehicle” value in series [1] (highest dose of THCV (2.5 mg/kg), 80 mg/kg PTZ, p=0.013) is recorded as “increased latencies, reaching a significant level”. In addition, the “latency to score of [3] vs vehicle” value in series [1] (highest dose of THCV (2.5 mg/kg), 80 mg/kg PTZ, p=0.017) is “increased latencies, reaching a significant level”. Further, the “latency to first manifestation of seizure-like behaviour vs vehicle” value in [1] (highest dose of THCV (2.5 mg/kg), 80 mg/kg PTZ, p=0.02) is reported as “delay of onset was significant”. Also, the “duration of PTZ-induced seizures in animals that survived vs vehicle” value in series [1] (medium dose of THCV (0.25 mg/kg), 80 mg/kg PTZ, p=0.03) is given as “significantly shorter”. Also, in [6], the “activity at the CB1 receptor” value was “antagonist”.
`CCCC(CCC)C(=O)O` [Valproic acid, valproic acid, reference compound]: in series [10], the “mortality (independent effect when co-administered)” value is recorded as “significant decreases”, the “onset latency (independent effect when co-administered)” value is listed as “significant decreases” and the “seizure severity (independent effect when co-administered)” value is “significant decreases”. Moreover, in series [11], the “mortality (independent effect)” value was “only CBDV and not valproate independently caused a significant decrease”; the “seizure severity (independent effect)” value is “independent and positive effects”. Further, the “Incidence of Tonic convulsion” value in series [2] (200 mg/kg i.p., Table 10.2, 10 mice per group, vehicle 9/10) was 5/10. Further, in series [2] (350 mg/kg i.p., Table 10.1, 5 mice per group, vehicle 5/5), the “Incidence of Tonic convulsion” value is reported as 0/5**. Also, in [2] (350 mg/kg i.p., Table 10.2, 10 mice per group, vehicle 9/10), the “Incidence of Tonic convulsion” value is recorded as 1/10**. In addition, the “hindlimb extension vs vehicle group” value in series [2] (350 mg/kg valproic acid, statistically significant) was “blocked”. In addition, the “motor and other side effects” value in series [12] (setting [13]) is “notable motor and other side effects (including sedation)”.
As for `CCC1(C)CC(=O)NC1=O` (stereo not drawn) [ethosuximide], the “motor and other side effects” value in series [12] (setting [13]) is “notable motor and other side effects (including sedation)”.
For `CCC1(c2ccccc2)C(=O)NC(=O)NC1=O` [phenobarbital], the “motor and other side effects” value in series [12] (rat models of epilepsy at doses greater than 250 mg/kg) is “notable motor and other side effects (including sedation)”.
